Assay results from BindingDB's records for PubMed 39167893 (University of Petroleum and Energy Studies).

Target: KRas/Son of Sevenless Homolog 1 (Homo sapiens, UniProt P01116+Q07889)
Experiment: Inhibition of KRAS G12D mutant/SOS1 (unknown origin) interaction by TR-FRET assay

Sequence of KRas/Son of Sevenless Homolog 1 (P01116 whole entry G12D): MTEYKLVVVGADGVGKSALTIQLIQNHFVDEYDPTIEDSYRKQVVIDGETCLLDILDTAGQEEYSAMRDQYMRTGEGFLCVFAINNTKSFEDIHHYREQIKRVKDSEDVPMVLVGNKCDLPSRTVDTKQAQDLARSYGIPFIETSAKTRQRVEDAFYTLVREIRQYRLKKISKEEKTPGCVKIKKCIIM
Sequence of KRas/Son of Sevenless Homolog 1 (Q07889 whole entry): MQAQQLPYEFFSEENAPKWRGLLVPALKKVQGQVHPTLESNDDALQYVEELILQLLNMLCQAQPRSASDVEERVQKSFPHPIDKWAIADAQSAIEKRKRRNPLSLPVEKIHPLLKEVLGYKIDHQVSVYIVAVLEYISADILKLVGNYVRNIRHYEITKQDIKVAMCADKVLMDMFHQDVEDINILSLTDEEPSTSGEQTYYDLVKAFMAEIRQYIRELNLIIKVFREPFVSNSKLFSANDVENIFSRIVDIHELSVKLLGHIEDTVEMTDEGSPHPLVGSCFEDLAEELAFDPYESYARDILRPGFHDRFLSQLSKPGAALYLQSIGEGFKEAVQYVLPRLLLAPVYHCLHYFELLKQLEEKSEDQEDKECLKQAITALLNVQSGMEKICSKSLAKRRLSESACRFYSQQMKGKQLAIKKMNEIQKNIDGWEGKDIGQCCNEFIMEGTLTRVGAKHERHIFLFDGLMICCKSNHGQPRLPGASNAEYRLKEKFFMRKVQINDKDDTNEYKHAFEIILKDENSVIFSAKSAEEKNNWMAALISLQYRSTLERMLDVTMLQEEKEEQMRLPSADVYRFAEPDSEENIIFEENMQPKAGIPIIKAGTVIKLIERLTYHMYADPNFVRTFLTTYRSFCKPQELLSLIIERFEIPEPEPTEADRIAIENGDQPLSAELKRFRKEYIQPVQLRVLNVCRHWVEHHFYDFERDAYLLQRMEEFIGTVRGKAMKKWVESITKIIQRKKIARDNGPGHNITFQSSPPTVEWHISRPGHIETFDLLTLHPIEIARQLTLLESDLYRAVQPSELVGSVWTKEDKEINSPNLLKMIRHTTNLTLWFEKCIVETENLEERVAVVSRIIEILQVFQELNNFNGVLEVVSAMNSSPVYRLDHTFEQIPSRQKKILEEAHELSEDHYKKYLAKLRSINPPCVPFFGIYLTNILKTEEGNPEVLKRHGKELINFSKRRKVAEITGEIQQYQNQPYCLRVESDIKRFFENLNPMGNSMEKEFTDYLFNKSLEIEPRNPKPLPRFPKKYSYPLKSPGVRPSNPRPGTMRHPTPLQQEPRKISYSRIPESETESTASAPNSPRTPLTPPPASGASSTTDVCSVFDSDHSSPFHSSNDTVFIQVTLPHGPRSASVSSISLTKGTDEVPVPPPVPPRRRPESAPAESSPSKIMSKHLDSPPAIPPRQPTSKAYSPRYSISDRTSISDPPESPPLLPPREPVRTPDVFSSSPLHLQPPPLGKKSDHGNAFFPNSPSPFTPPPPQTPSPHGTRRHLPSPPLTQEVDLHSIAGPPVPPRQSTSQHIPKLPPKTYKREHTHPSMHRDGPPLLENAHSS

- IC50: 450 nM
Structure (SMILES): Cn1cnc(Cn2ccc3ccc(CNCc4[nH]c5ccccc5c4[C@H]4NC(=O)c5ccc(O)cc54)cc32)c1
